Measurements: patent US20150004134A1, “TREATMENT OF CANCER WITH HETEROCYCLIC INHIBITORS OF GLUTAMINASE” (Calithera Biosciences, Inc., priority 2012, published 2015)
Like-named read-outs stand apart in the source and are kept apart here.

Tested on: P493-6 (myc "on") cells
Assay: Cell Proliferation Assay
Type: cell-based
Protocol: P493-6 (myc “on”) cells were maintained in growth media (RPMI-1640, 10% FBS, 2 mM glutamine, 100 units/ml Penicillin and 100 μg/ml streptomycin) at 37° C. with 5% CO2. For compound assay, P493-6 cells were plated in 96-well V-bottom plates on the day of compound addition in 50 μl of growth media at a cell density of 200,000 cells/ml (10,000 cells/well). Compounds were serially diluted in 100% DMSO at 200-times the final concentration. Compounds were diluted 100-fold into growth media and then 50 μl of this mixture was added to cell plates making the final concentration of DMSO 0.5%. Cells were incubated with compound for 72 hrs at 37° C. with 5% CO2 and analyzed for antiproliferative effects either by Cell Titer Glo (Promega) or FACS analysis using the Viacount (Millipore) kit on the Guava instrument.

[1] = P493-6, 72 h, read-out: Cell prolif P493 72 h IC50, P493-6 cells, 72 h
[2] = P493-6, 72 h, read-out: Cell prolif P493 72 h IC50, P493 cells, 72 h
[3] = P493-6, read-out: Cell prolif P493 72 h IC50, P493 cells, 72 h

CCCC(=O)OC(C(=O)Nc1nnc(CCCCc2ccc(NC(=O)Cc3ccccc3)nn2)s1)c1cccc(Cl)c1 (centres unmarked) [Compound 439]
IC50 (read-out: Cell prolif P493 72 h IC50, P493-6 cells, 72 h): 56 nM

CCCC(=O)OCN(C(=O)Cc1cccc(CC(=O)N2CCC(F)(F)CC2)c1)c1nnc(CCCCc2ccc(NC(=O)Cc3ccccc3)nn2)s1 [Compound 570]
IC50 [1]: 9 nM

O=C(Cc1ccccc1)Nc1nnc(CCCCc2nnc(NC(=O)Cc3c(Cl)ccc(O)c3F)s2)s1 [Compound 345]
IC50 [2]: 240 nM

O=C(Cc1ccccc1)Nc1ccc(CCCCc2nnc(NC(=O)[C@@H](O)c3ccccc3)s2)nn1 [Compound 350]
IC50 [2]: 29 nM

O=C(Nc1nnc(CCSCCc2nnc(NC(=O)C3CC4CCC3C4)s2)s1)C1CC2CCC1C2 (centres unmarked) [Compound 38]
IC50 [2]: 3200 nM

CC(C)(C)OC(=O)N1CCCC(CC(=O)Nc2nnc(CCCCc3nnc(NC(=O)CC4CCCN(C(=O)OC(C)(C)C)C4)s3)s2)C1 (centres unmarked) [Compound 115]
IC50 [2]: 1100 nM

CC(C(=O)Nc1nnc(CCCCc2ccc(NC(=O)Cc3cccc(CNC(=O)OC(C)(C)C)c3)nn2)s1)c1ccccc1 (centres unmarked) [Compound 489]
IC50 [1]: 23 nM

CC(C)[C@H](NC(=O)OC(C)(C)C)C(=O)Nc1nnc(CCCCc2nnc(NC(=O)[C@@H](NC(=O)OC(C)(C)C)C(C)C)s2)s1 [Compound 42]
IC50 [2]: > 50000 nM

O=C(Cc1ccccc1)Nc1nnc(CCCCc2nnc(NC(=O)Oc3ccccc3)s2)s1 [Compound 371]
IC50 [3]: 5200 nM

CC(C)(C)OC(=O)N1CCC(CC(=O)Nc2nnc(CCSCCc3nnc(NC(=O)CC4CCN(C(=O)OC(C)(C)C)CC4)s3)s2)CC1 [Compound 111]
IC50 [2]: 880 nM

CC(=O)N1Cc2cccc(CC(=O)Nc3nnc(CCCCc4ccc(NC(=O)Cc5ccccc5)nn4)s3)c2C1 [Compound 651]
IC50 [1]: 37 nM

O=C(CCC(C(=O)O)c1ccccc1)Nc1nnc(CCSCCc2nnc(NC(=O)CCC(C(=O)O)c3ccccc3)s2)s1 (centres unmarked) [Compound 179]
IC50 [2]: > 50000 nM

COc1ccc(OC)c(CC(=O)Nc2nnc(CCCCc3nnc(NC(=O)Cc4ccccc4)s3)s2)c1 [Compound 271]
IC50 [2]: 630 nM

O=C(CC1CC1)Nc1nnc(CCSCCc2nnc(NC(=O)CC3CC3)s2)s1 [Compound 83]
IC50 [2]: 1400 nM

CCOC(=O)NCc1cc(C(C)C(=O)Nc2nnc(CCCCc3ccc(NC(=O)Cc4ccccc4)nn3)s2)ccc1F (centres unmarked) [Compound 574]
IC50 [1]: 28 nM

O=C(Cc1ccccc1)Nc1ccc(CCCCc2nnc(NC(=O)C(O)c3cccc(Br)c3)s2)nn1 (centres unmarked) [Compound 415]
IC50 [1]: 18 nM

CCOc1ccccc1CC(=O)Nc1nnc(CCCCc2nnc(NC(=O)Cc3ccccc3OCC)s2)s1 [Compound 300]
IC50 [2]: 160 nM

CC(NC(=O)OC(C)(C)C)c1cc(CC(=O)Nc2nnc(CCCCc3ccc(NC(=O)Cc4ccccc4)nn3)s2)ccc1F (centres unmarked) [Compound 653]
IC50 [1]: 10 nM

O=C(Cc1cccc(-n2cccn2)c1)Nc1nnc(CCCCc2nnc(NC(=O)Cc3cccc(-n4cccn4)c3)s2)s1 [Compound 285]
IC50 [2]: 140 nM

CC(C)[C@H](NC(=O)OC(C)(C)C)C(=O)Nc1nnc(CCSCCc2nnc(NC(=O)Cc3ccccc3)s2)s1 [Compound 33]
IC50 [2]: 5300 nM

COC(C(=O)Nc1nnc(CCCCc2ccc(NC(=O)Cc3cccc(CNC(=O)CC(C)(O)C(F)(F)F)c3)nn2)s1)c1ccccc1 (centres unmarked) [Compound 605]
IC50 [1]: 18 nM

O=C(Cc1cccc(CN2CCNCC2)c1)Nc1nnc(CCCCc2nnc(NC(=O)Cc3cccc(CN4CCNCC4)c3)s2)s1 [Compound 286]
IC50 [2]: 6400 nM

O=C(Cc1ccccc1)Nc1ccc(CCCCc2nnc(NC(=O)NCc3ccccc3)s2)nn1 [Compound 352]
IC50 [2]: 130 nM

CC(O)c1cccc(CC(=O)Nc2ccc(CCCCc3nnc(NC(=O)Cc4ccccc4)s3)nn2)c1 (centres unmarked) [Compound 611]
IC50 [1]: 40 nM

O=C(Nc1nnc(CCCCCc2nnc(NC(=O)C(CO)c3ccccc3)s2)s1)C(CO)c1ccccc1 (centres unmarked) [Compound 30]
IC50 [2]: 2500 nM

O=C(Cc1ccccc1)Nc1ccc(CCCCc2nnc(NC(=O)Cc3cccc(Cl)c3)s2)nn1 [Compound 335]
IC50 [2]: 50 nM

O=C(Cc1ccccc1Br)Nc1nnc(CCSCCc2nnc(NC(=O)Cc3ccccc3Br)s2)s1 [Compound 283]
IC50 [2]: 740 nM

COC(=O)C(CC(=O)Nc1nnc(CCCCc2nnc(NC(=O)CC(C(=O)O)c3ccccc3)s2)s1)c1ccccc1 (centres unmarked) [Compound 178]
IC50 [2]: > 50000 nM

O=C(Cc1cccc(Cn2cccn2)c1)Nc1nnc(CCCCc2nnc(NC(=O)Cc3cccc(Cn4cccn4)c3)s2)s1 [Compound 362]
IC50 [2]: 54 nM

O=C(Cc1ccccc1)Nc1nnc(CCSCCc2nnc(NC(=O)C(c3ccccc3)N3CCNCC3)s2)s1 (centres unmarked) [Compound 78]
IC50 [2]: 10000 nM

CC(C)(C)OC(=O)Nc1cccc(CC(=O)Nc2nnc(CCSCCc3nnc(NC(=O)Cc4cccc(NC(=O)OC(C)(C)C)c4)s3)s2)c1 [Compound 98]
IC50 [2]: 3900 nM

O=C(C[C@@H](O)C(=O)O)Nc1nnc(CCCCc2nnc(NC(=O)C[C@@H](O)C(=O)O)s2)s1 [Compound 154]
IC50 [2]: > 50000 nM

O=C(Cc1ccccc1)Nc1ccc(CCCCc2nnc(NC(=O)CC3=CN4CCCN=C4S3)s2)nn1 [Compound 511]
IC50 [1]: 1100 nM

CO[C@H](C(=O)Nc1nnc(CCCCc2nnc(NC(=O)[C@@H](OC)c3ccccc3)s2)s1)c1ccccc1 [Compound 148]
IC50 [2]: 390 nM

CC(=O)OC(C(=O)Nc1nnc(CCCCc2nnc(NC(=O)C(OC(C)=O)c3ccccc3)s2)s1)c1ccccc1 (centres unmarked) [Compound 173]
IC50 [2]: 760 nM

O=C(OCC(C(=O)Nc1nnc(CCCCc2nnc(NC(=O)C(COC(=O)C3CCN(C(=O)OCc4ccccc4)CC3)c3ccccc3)s2)s1)c1ccccc1)C1CCN(C(=O)OCc2ccccc2)CC1 (centres unmarked) [Compound 301]
IC50 [2]: 230 nM

COc1cccc(CC(=O)Nc2nnc(CCSCCc3nnc(NC(=O)Cc4cccc(OC)c4OC)s3)s2)c1OC [Compound 259]
IC50 [2]: 570 nM

O=C(Cc1ccccc1F)Nc1ccc(CCCCc2nnc(NC(=O)Cc3ccccc3Cl)s2)nn1 [Compound 566]
IC50 [1]: 15 nM

CN(Cc1cccc(CC(=O)Nc2nnc(CCCCc3nnc(NC(=O)Cc4ccccc4)s3)s2)c1)C(=O)OC(C)(C)C [Compound 391]
IC50 [2]: 27 nM

CN(Cc1cc(CC(=O)Nc2nnc(CCCCc3ccc(NC(=O)Cc4ccccc4)nn3)s2)ccc1F)C(=O)OC(C)(C)C [Compound 569]
IC50 [1]: 11 nM

CC(C)[C@H](NC(=O)OC(C)(C)C)C(=O)Nc1nnc(CCSCCc2nnc(NC(=O)[C@@H](NC(=O)OC(C)(C)C)C(C)C)s2)s1 [Compound 34]
IC50 [2]: > 50000 nM

O=C(Cc1ccccc1)Nc1nnc(CCCCc2nnc(NC(=O)Cc3ccccc3)o2)o1 [Compound 637]
IC50 [1]: > 50000 nM

O=C(Nc1nnc(CCSCCc2nnc(NC(=O)C3CCc4ccccc4C3)s2)s1)C1CCc2ccccc2C1 (centres unmarked) [Compound 37]
IC50 [2]: > 50000 nM

O=C(Nc1nnc(CCCCc2nnc(NC(=O)C3CC(O)c4ccccc43)s2)s1)C1CC(O)c2ccccc21 (centres unmarked) [Compound 94]
IC50 [2]: 470 nM

CC(C(=O)Nc1nnc(CCSCCc2nnc(NC(=O)C(C)c3ccccc3Cl)s2)s1)c1ccccc1Cl (centres unmarked) [Compound 261]
IC50 [2]: 2600 nM

O=C(Cc1ccccc1)Nc1nnc(CCSCc2nnc(NC(=O)Cc3ccccc3)s2)s1 [Compound 199]
IC50 [2]: 170 nM

O=C(Cc1cccs1)Nc1nnc(CCCCc2nnc(NC(=O)Cc3cccs3)s2)s1 [Compound 87]
IC50 [2]: 60 nM

O=C(Cc1ccccc1)Nc1nnc(CCCCc2nnc(NC(=O)C(O)(CO)c3ccccc3)s2)s1 (centres unmarked) [Compound 280]
IC50 [2]: 230 nM

CC1(C)OCC(C(=O)Nc2nnc(CCCCc3nnc(NC(=O)Cc4ccccc4)s3)s2)(c2ccccc2)O1 (centres unmarked) [Compound 279]
IC50 [2]: 7000 nM

Nc1ccc(CCCCc2nnc(NC(=O)C(O)c3cccc(Cl)c3)s2)nn1 (centres unmarked) [Compound 411]
IC50 [1]: 740 nM

O=C(Nc1nnc(CCCCc2nnc(NC(=O)C(O)c3ccccc3)s2)s1)C(O)c1ccccc1 (centres unmarked) [Compound 174]
IC50 [2]: 440 nM

COC(=O)C(C(=O)Nc1nnc(CCCCc2nnc(NC(=O)C(C(=O)OC)c3ccccc3)s2)s1)c1ccccc1 (centres unmarked) [Compound 220]
IC50 [2]: 310 nM

O=C(Cn1ccc2ccccc21)Nc1nnc(CCSCCc2nnc(NC(=O)Cn3ccc4ccccc43)s2)s1 [Compound 213]
IC50 [2]: 4400 nM

O=C(Cc1cccnc1)Nc1nnc(CCSCCc2nnc(NC(=O)Cc3cccnc3)s2)s1 [Compound 638]
IC50 [1]: 5700 nM

O=C(Nc1nnc(CCCCc2nnc(NC(=O)C(c3ccccc3)N3CCNCC3)s2)s1)C(c1ccccc1)N1CCNCC1 (centres unmarked) [Compound 77]
IC50 [2]: 34000 nM

CC(C)(C)OC(=O)NCc1cccc(CC(=O)Nc2ccc(CCCCc3nnc(NC(=O)Cc4cccc(CNC(=O)OC(C)(C)C)c4)s3)nn2)c1 [Compound 571]
IC50 [1]: 10 nM

CC(C)Cc1ccc(C(C)C(=O)Nc2nnc(CCCCc3ccc(NC(=O)Cc4ccccc4)nn3)s2)cc1 (centres unmarked) [Compound 557]
IC50 [1]: 120 nM

O=C(Cc1cccc(Cl)c1)Nc1ccc(CCCCc2nnc(NC(=O)C(O)c3cccc(Cl)c3)s2)nn1 (centres unmarked) [Compound 448]
IC50 [1]: 51 nM

COc1c(F)ccc(CC(=O)Nc2nnc(CCCCc3nnc(NC(=O)Cc4ccccc4)s3)s2)c1F [Compound 344]
IC50 [2]: 88 nM

COc1ccc(C(=O)Nc2nnc(CCSCCc3nnc(NC(=O)c4ccc(OC)cc4)s3)s2)cc1 [Compound 3]
IC50 [3]: > 50000 nM

O=C(Cc1ccc2ncccc2c1)Nc1nnc(CCSCCc2nnc(NC(=O)Cc3ccc4ncccc4c3)s2)s1 [Compound 268]
IC50 [2]: 5400 nM

CC(C)(C)OC(=O)N1CCCC(CC(=O)Nc2nnc(CCSCCc3nnc(NC(=O)CC4CCCN(C(=O)OC(C)(C)C)C4)s3)s2)C1 (centres unmarked) [Compound 112]
IC50 [2]: 890 nM
